Measurements as given in patent US8153609B2 (priority 2004, dated 2012).
“And” between values parts separate entries of the source, which are not always exact repeats. Equal values may be shown once. Where a name gives a salt, the structure may show the parent alone. Read-outs that look alike come from different tables or passages of the source.

Assays:
[1] = target: T1, PKA type Iα (RIα/Cα) holoenzyme (Homo sapiens, UniProt P10644); experiment: Cook coupled spectrophotometric kinase assay, suppression (antagonist) assay, PKA type Iα; assay type: biochemical; settings: for Antagonist / EC50: Table 1 (Example 83), PKA type Iα; for EC50: unit inferred, read-out: EC50 inhibition; for relative potency*: antagonists relative to Rp-8Br-cAMPS; for Potency: PKA type Iα enzymatic activity, relative to the known Rp-8-Br-cAMPS
[2] = test system: Human peripheral T lymphocytes; experiment: T lymphocyte proliferation assay (anti-CD3 activated, [3H]thymidine); settings: Ex vivo testing in T lymphocytes; for Antagonist properties: in presence of agonist Sp-8-Br-cAMPS; for relative potency*: reference compounds = 1.00
[3] = target: T1, PKA type Iα (RIα/Cα) holoenzyme; experiment: Cook assay, activation (agonist) assay, RIα holoenzyme; assay type: biochemical; settings: Table 1 (Example 83), activation screen 10 μM analog
[4] = target: PKA type Iα (holo RIα) (Homo sapiens, UniProt P10644); experiment: Biacore surface competition ligand binding assay, holo RIα; settings: 10 nM holo RIα; for EC50: Rp-8-AHA cAMPS surface
[5] = target: T2, PKA type IIα (RIIα holoenzyme) (Homo sapiens, UniProt P13861); experiment: Cook kinase assay, suppression assay, PKA type IIα; assay type: biochemical; settings: for relative inhibition*: % antagonist effect with 1 μM Sp-8Br-cAMPS at 250 μM of Rp-cAMPS analog; for EC50RII/EC50RI***: Selectivity for PKA type I (EC50 PKA type II/EC50 PKA type I); for Antagonist / EC50: Table 2, Holo RIIa; for EC50: unit inferred, read-out: EC50 inhibition; for relative potency**: antagonists relative to Rp-8-Br-cAMPS, Holo RIIa; for IC50: reversal of Sp-8-Br-cAMP-mediated PKA type II activation, 1 μM Sp-8-Br cAMPS, 10 nM RIIα holoenzyme, read-out: half-maximal antagonistic effect (IC50 or EC50)
[6] = test system: CD4+ T cells of MAIDS-infected C57BL6 mice; settings: mouse, in vivo
[7] = target: T2, PKA type IIα (RIIα holoenzyme); experiment: Cook assay, activation of Holo RIIα; settings: for Agonist: Table 2, Holo RIIa
[8] = reversal of Sp-8-Br-cAMP-mediated PKA activation, 1 μM Sp-8-Br-cAMPS, 10 nM RIα holoenzyme, read-out: half-maximal antagonistic effect (IC50 or EC50)

Molecule	Antagonist [1]	relative potency* [1]	IC50 [1, 8]	Agonist properties [2]	Antagonist properties [2]	Agonist [3]	Potency [1]	also measured
Nc1ncnc2c1nc(-c1ccc(Br)o1)n2C1OC2COP(O)(=S)OC2C1O (stereo not shown) [Rp-8-(2-Br-5-furyl)-cAMPS]	yes*	0.45	2900 nM	No	Yes	no	–	EC50 [1]: 3000 nM
Nc1ncnc2c1nc(-c1ccco1)n2C1OC2COP(O)(=S)OC2C1O (stereo not shown) [Rp-8-(2-furyl)-cAMPS, (Rp)-8-(2-Furyl)adenosine-3′,5′-cyclic phosphorothioic acid ammonium salt]	yes	4.24	238 nM and 337 nM and 360 nM	No	Yes	no	4.24	EC50 [4]: 377 nM; binding to 8-AHA cAMP surface ([4]; any concentration of antagonist): not affected; binding of holo complex at the Rp-8-AHA cAMPS surface ([4]; excess of antagonist 10 μM): completely blocked; effect in binding to the 8-AHA cAMP surface ([4]; excess of antagonist 10 μM): no effect; relative inhibition* [5]: 59%; EC50RII/EC50RI*** [5]: 32; Antagonist [5]: yes; EC50 [5]: 11600 nM; relative potency** [5]: 1.28; IC50 [5]: 11600 nM and 16700 nM; EC50 [1]: 319 nM; IC50 ([1]; Table 3, read-out: holo RIa Cook): 349 nM; IFN-γ secretion of CD4+ T cells from the infected mice [6]: slightly increasing; TNF-α secretion by CD4 T cells of infected mice [6]: inhibited; TNF-α secretion of CD4+ T cells from the infected mice after stimulation with SEB [6]: reducing; significance (p) of effect on SEB stimulated TNF-α secretion by CD4 T cells [6]: 0.0041; Agonist [7]: no
Nc1ncnc2c1nc(-c1cccs1)n2C1OC2COP(O)(=S)OC2C1O (stereo not shown) [Rp-8-(2-thienyl)-cAMPS, (Rp)-8-(2-Thienyl)adenosine-3′,5′-cyclic phosphorothioic acid ammonium salt]	yes	3.01	449 nM	No	Yes	no	3.01	–
Nc1ncnc2c1nc(-c1ccoc1)n2C1OC2COP(O)(=S)OC2C1O (stereo not shown) [Rp-8-(3-furyl)-cAMPS, (Rp)-8-(3-Furyl)adenosine-3′,5′-cyclic phosphorothioic acid ammonium salt]	yes	2.23	607 nM	–	Yes	no	2.23	EC50 [4]: 743 nM
Nc1ncnc2c1nc(-c1ccsc1)n2C1OC2COP(O)(=S)OC2C1O (stereo not shown) [Rp-8-(3-thienyl)-cAMPS]	yes	1.83	739 nM	–	Yes	no	1.83	–
Cc1ccc(-c2nc3c(N)ncnc3n2C2OC3COP(O)(=S)OC3C2O)o1 (stereo not shown) [Rp-8-(5-Me-2-furyl)-cAMPS, (Rp)-8-(5-Methyl-2-furyl)adenosine-3′,5′-cyclic phosphorothioic acid tributylammonium salt]	yes	1.17	1160 nM	No	Yes	no	–	–
Nc1ncnc2c1nc(-c1ccc(CO)o1)n2C1OC2COP(O)(=S)OC2C1O (stereo not shown) [Rp-8-(5-MeOH-2-furyl)-cAMPS, (Rp)-8-(2-Hydroxymethyl-5-furyl)adenosine-3′,5′-cyclic phosphorothioic acid tributylammonium salt]	yes	0.68	1980 nM	No	Yes	no	–	–
CC(=O)c1nc2c(N)ncnc2n1C1OC2COP(O)(=S)OC2C1O (stereo not shown) [Rp-8-acetyl-cAMPS]	yes	0.86	1580 nM	No	Yes	no	–	–
Nc1ncnc2c1nc(-c1cc3ccccc3o1)n2C1OC2COP(O)(=S)OC2C1O (stereo not shown) [Rp-8-benzofuryl-cAMPS, (Rp)-8-(2-Benzofuryl)adenosine-3′,5′-cyclic phosphorothioic acid tributylammonium salt]	yes	0.49	–	No	Yes	no	–	EC50 [1]: 2780 nM
CCc1nc2c(N)ncnc2n1C1OC2COP(O)(=S)OC2C1O (stereo not shown) [Rp-8-ethyl-cAMPS]	yes	0.22	6130 nM	No	Yes	no	–	–
Nc1ncnc2c1nc(-c1ccccc1)n2C1OC2COP(O)(=S)OC2C1O (stereo not shown) [Rp-8-phenyl-cAMPS, (Rp)-8-Phenyladenosine-3′,5′-cyclic phosphorothioic acid]	yes	1.28	–	No	Yes	no	1.28	relative inhibition* [5]: 61%; EC50RII/EC50RI*** [5]: 46; Antagonist [5]: yes; EC50 [5]: 48600 nM; relative potency** [5]: 0.31; IC50 [5]: 48600 nM; EC50 [1]: 1060 nM; Agonist [7]: no
Nc1ncnc2c1nc(Br)n2[C@@H]1O[C@@H]2COP(O)(=S)O[C@@H]2C1O (stereo partly shown) [Sp-8-Br-cAMPS, reference compound]	–	–	–	Yes	No	–	–	Antagonist [5]: no; relative potency* [2]: 1.00; Agonist [7]: yes; EC50 ([7]; read-out: EC50 (activation constant of Holo RIIα with agonist), 10 nM Holo RIIα, 3 minute preincubation): 294 nM
(Rp)-8-(2-Thiazolyl)adenosine-3′,5′-cyclic phosphorothioic acid ammonium salt [Rp-8-(2-thiazole)-cAMPS]	–	–	–	No	Weak	–	–	–
(Rp)-8-(5-Methoxy-2-furyl)adenosine-3′,5′-cyclic phosphorothioic acid tributylammonium salt [Rp-8-(5-MeO-2-FU)-cAMPS]	–	–	–	No	Yes	–	–	relative potency* [2]: 0.25
